What all share (type): cell-based
Assay [1] has as its system Staphylococcus aureus 209P. The experiment in a line: Antibacterial activity, serial dilutions in liquid MH medium. The following applies: for MIC: MH medium, 20 h, 37° C., 100% growth inhibition; for MBC: no colonies on agarized MH medium. How it is done: (§1) The antibacterial activity of the compounds was determined against strains of gram-positive bacteria such as Staphylococcus aureus 209P, Enterococcus faecalis BKM B-871, Micrococcus luteus BKM Ac-2230, Bacillus subtilis BKM B-501, and gram-negative bacteria such as Pseudomonas aeruginosa PAO1 and Escherichia coli KM MGU C-600. BKM strains were acquired from the All-Russia Collection of Microorganisms at the Institute for Biochemistry and Physiology of Microorganisms, Russian Academy of Sciences. Strain Staphylococcus aureus 209P was acquired from the Collection of Microorganisms at the Department of microbiology of the Faculty of Biology of Lomonosov Moscow State University, and Pseudomonas aeruginosa PAO1 was acquired from the Collection of Microorganisms at the Institute of Bioorganic Chemistry of the Russian Academy of Sciences.
(§2) The main parameters characterizing the antibacterial activity are the minimal inhibitory concentration (MIC) and minimal bactericidal concentration (MBC). […] MBC is the least concentration that causes the death of all cells.
(§3) MIC was quantified by inhibiting culture growth in a liquid medium with serial dilutions of compounds using a modified procedure [Amsterdam, D., 1966. “Susceptibility testing of antimicrobials in liquid media,” pp. 52-111. In Loman, V., ed. Antibiotics in laboratory medicine, 4th ed. Williams and Wilkins, Baltimore].
(§4) Bacteria were cultured and tested on an MH liquid medium (Mueller-Hinton medium: a dry extract of beef broth, 4 g/L; starch, 1.5 g/L; casein hydrolyzate, 17.5 g/L; Sigma-Fluka Catalog No. 70192) at 37° C., 100% humidity, and under stirring. Cultures (within 4 to 7 passages after thawing) in the exponential growth phase were used for tests.
(§5) All tested compounds absorb light at 595 nm, a wavelength used for evaluating bacterial culture growth. Therefore, a correction for absorption was applied in estimating the optical density of bacterial suspensions for each compound with account for its concentration in the well. Bacterial growth inhibition (GI) as percentage after 20 hours of incubating cells with compounds was derived from the optical density (A) measured in every well at a wavelength of 595 nm using the equation: GIi=[(Act−Ac0)−(Ait−Ai0)]×100/(Act−Ac0), (1) wherein the subscripts have the following meanings: i denotes the well number, c denotes a control well with bacteria whereto the tested compound is not inserted, 0 refers to the measurement taken immediately once the tested compound was inserted to the well, and t refers to the measurement taken 20 hours after the compound was inserted.
(§6) The protocol for the determination of experimental antibacterial activity of the tested compounds was as follows. A cryovial with the test strain culture in a medium with 7% DMSO stored in liquid nitrogen, was rapidly defrosted, and 1.5 mL of the fresh MH medium was inoculated with 100 μL of the cell suspension. Cells were grown for one day at 37° C. and stirred on an orbital shaker at 150 rpm. The morphologic features of the strain and the absence of contamination with foreign bacteria were verified by: (a) inoculation on an agarized (15 g/L agar) MH medium and observation of the shape and color of the grown colonies and (b) examination of characteristic morphologic features under a microscope (Mikmed-2, LOMO, Russia) equipped with a 40× objective lens. Further, the bacteria were cultured in 1 mL of the liquid MH medium at 37° C. under stirring. The cells were reseeded every day. Cell cultures were used in tests starting with 3rd reseeding and ending with 6th one.
(§7) For testing, 5 μL of a bacterial suspension in the stationary growth phase was transferred to 1 mL of a sterile MH medium and incubated until the exponential growth phase was attained (3 to 5 h, 37° C., stirring at 150 rpm). To estimate the microorganism concentration, the optical density (A) of the resulting bacterial culture was measured at a wavelength of 595 nm. […]

In assay [2] the test system is Enterococcus faecalis BKM B-871. The description is as above. As to conditions: for MIC: MH medium, 20 h, 37° C., 100% growth inhibition; for MBC: no colonies on agarized MH medium. Here is the method: as §1, §2, §3, §4, §5, §6, §7
Assay [3] has as its system Micrococcus luteus BKM Ac-2230. Described as above. The following applies: for MIC: MH medium, 20 h, 37° C., 100% growth inhibition; for MBC: no colonies on agarized MH medium. How it is done:
as §1, §2, §3, §4, §5, §6, §7

For assay [4], the system named is Bacillus subtilis BKM B-501. The assay is described as above. As to conditions: for MIC: MH medium, 20 h, 37° C., 100% growth inhibition; for MBC: no colonies on agarized MH medium. How it is done:
as §1, §2, §3, §4, §5, §6, §7

Assay [5] deals with Vancomycin-resistant Enterococcus faecium 569. Nature of the assay: Antibacterial specific activity, twofold dilutions, visual growth evaluation. The following applies: Vancomycin-resistant E. faecium 569; 36° C., 24 hours. Here is the method: (§8) The specific activity of compounds also was determined against bacteria strains such as Staphylococcus aureus No. 25923 ATCC (American Type Culture Collection); Staphylococcus aureus No. 100 KC; Staphylococcus epidermidis No. 533; Enterococcus faecalis No. 559; Enterococcus faecium No. 569, Staphylococcus aureus No. 5 (MRSA), Staphylococcus aureus No. 3797 (MRSA). Staphylococcus aureus was cultured on the Trypticase Soy Agar (BBL) commercially available dry medium. Enterococcus faecalis was cultured on the Columbia Agar (BBL) commercially available dry medium. These media were sterilized by autoclaving at 121° C. for 15 min. Bacterial inoculum was constant and was 5×10^5 CFU/ml (10^5 CFU/0.2 ml). For water-soluble compounds, wells from 2nd through 8th were added with the solvent (water) in an amount of 15 μL per well, then the 1st well was added with 30 μL of the stock solution of the tested compound in […] with a concentration of […], and the concentration was adjusted to 0.007×10^3 M by serial twofold dilutions. A 10-μL portion was taken from every well, and 190 μL of the bacterial culture (10^5 CFU) was added per well. For DMSO-soluble compounds, wells from 2nd through 8th were added with the solvent (DMSO) in an amount of 10 μL per well, then the 1st well was added with 20 μL of the stock solution of the tested compound in […] with a concentration of […], and the concentration was adjusted to 0.039×10^3 M by serial twofold dilutions. A 2-μL portion was taken from each well, and 198 μL of the bacterial culture (10^5 CFU) was added per well.
(§9) The control comprised wells free of tested compounds (culture growth control). In addition, purity control of nutritional media and solvents was used. Plates were incubated in a thermostat at 36° C. for 24 hours.
(§10) Culture growth was evaluated visually by comparison of how microorganisms grew in the presence of tested compounds and in the absence of them. MIC was set equal to the last dilution of a tested agent which suppressed bacterial culture growth.

Assay [6] relates to Staphylococcus aureus No. 100 KC. Described as above. As to conditions: S. aureus 100 KC; 36° C., 24 hours. Here is the method:
as §8, §9, §10

For assay [7], the system named is Staphylococcus aureus No. 25923 ATCC. The description is as above. The following applies: S. aureus 25923; 36° C., 24 hours. Here is the method:
as §8, §9, §10

Assay [8] deals with Staphylococcus aureus No. 3797 (MRSA). The description is as above. As to conditions: St. aur No. 3797 MRSA; 36° C., 24 hours. How it is done:
as §8, §9, §10

The next assay concerns Escherichia coli 4300. The description is as above. The following applies: E. coli 4300; 36° C., 24 hours. Here is the method: [Worded in the source for another organism; this organism is reported under the same test.] as §8, §9, §10
For assay [9], the system named is Staphylococcus aureus No. 5 (MRSA). Described as above. As to conditions: St. aur No. 5 MRSA; 36° C., 24 hours. How it is done:
as §8, §9, §10

Assay [10] concerns Staphylococcus epidermidis No. 533. The assay is described as above. As to conditions: S. epidermis 533; 36° C., 24 hours. Here is the method: as §8, §9, §10
Assay [11] relates to Enterococcus faecalis No. 559. The description is as above. The following applies: E. faecalis 559; 36° C., 24 hours. Here is the method:
as §8, §9, §10

Marks after values point to notes of the source that are not given here.

Here are results for nine molecules from patent US9605013B2, “Derivatives of hemin with antibacterial and antiviral activity” (OBSCHESTVO S OGRANICHENNOI OTVETSTVENNOSTIYU …, priority 2011, dated 2017).

As to `C=CC1=C(C)C2=Cc3c(C=C)c(C)c4[n]3[Fe]([Cl])[n]3c(c(C)c(CCC(=O)N[C@@H](CCC(=O)N[C@@H](CCCNC(=N)N)C(=O)OC)C(=O)N[C@@H](CCCNC(=N)N)C(=O)OC)c3=CC3=NC(=C4)C(C)=C3CCC(=O)N[C@@H](CCC(=O)N[C@@H](CCCNC(=N)N)C(=O)OC)C(=O)N[C@@H](CCCNC(=N)N)C(=O)OC)=CC1=N2` [XVI, reference compound], the minimal inhibitory concentration (MIC) in assay [1] is 6.3 µM; in assay [2] it was 12.5 µM; in assay [3], 3.1 µM; in [4] it was 1.6 µM. Further, the MBC in assay [1] was >200** μM; in assay [2], >200** μM; in assay [3], 12.5 µM; in assay [4], >200** μM.
As for “6,7-bis-[(N^α-L-Arginyl)-L-Seryl]-Protohemin (IX) [XXIV]”, the MIC in [5] was 6.25 µM; in [6], 5.20 µM; in assay [7], greater than 50.0 µM; in [8], 25 µM; against Escherichia coli 4300 it was greater than 50.0 µM; in assay [9], 25 µM. The minimal inhibitory concentration (MIC) in assay [10] was 2.60 µM; in assay [11] it was greater than 50.0 µM.
Take “6,7-bis-(N^α-Glycyl]-Protohemin (IX) [VII]”: the MIC in assay [5] is greater than 50.0 µM; in assay [6], 12.5 µM; in assay [7] it was 2.6 µM; in assay [8], 6.25 µM; in the assay on Escherichia coli 4300, greater than 50.0 µM; in assay [9], 6.25 µM. Moreover, the MIC in [10] is 6.25 µM; in assay [11], greater than 50.0 µM; in assay [1] it was 50 µM; in assay [3], 12.5 µM; in [4] it was 25 µM. Further, the MBC in [3] and in assay [4] was 25 µM each time.
Regarding “6,7-bis-[(Amide N^α-L-Arginyl)-L-Seryl]-Protohemin (IX) [XXIII]”, the MIC (in assay [5]; in assay [6]; in [7]; in assay [8]; in the assay on Escherichia coli 4300; in assay [9]) was greater than 50.0 µM in each case. For the same molecule, the MIC in [10] and in assay [11] was greater than 50.0 µM in each case.
As to `C=CC1=C(C)C2=Cc3c(C=C)c(C)c4[n]3[Fe]([Cl])[n]3c(c(C)c(CCC(=O)N[C@@H](CCCNC(=N)N)C(=O)OC)c3=CC3=NC(=C4)C(C)=C3CCC(=O)N[C@@H](CCCNC(=N)N)C(=O)OC)=CC1=N2` [XV, reference compound], the MIC in assay [5] was greater than 50 µM; in assay [6], 50 µM; in assay [7], 25 µM; against Escherichia coli 4300, greater than 50 µM; in [10], 25 µM; in assay [11], 25 µM. In addition, the minimal inhibitory concentration (MIC) in assay [1] amounted to 50 µM; in assay [2], 50 µM; in assay [3] it was 1.6 µM; in assay [4], 3.1 µM. For the same molecule, the minimal bactericidal concentration (MBC) was determined as 200 µM in assay [1], 400 µM in [2], 3.2 µM in assay [3] and 3.1 µM in [4].
On to “6,7-bis-[(Methyl Ester N^α-L-Arginyl)-L-Seryl]-Protohemin (IX) [XXI]”, for which the MIC in assay [5] was 6.25 µM; in assay [6], 0.65 µM; in assay [7], 0.39 µM; in assay [8], 1.56 µM; with Escherichia coli 4300, greater than 50.0 µM; in assay [9] it was 0.65 µM. Besides, the minimal inhibitory concentration (MIC) in assay [10] came out at 0.78 µM; in [11] it was 1.56 µM.
As to `C=CC1=C(C)C2=Cc3c(C=C)c(C)c4[n]3[Fe]([Cl])[n]3c(c(C)c(CCC(=O)N[C@@H](CO)C(=O)OC)c3=CC3=NC(=C4)C(C)=C3CCC(=O)N[C@@H](CO)C(=O)OC)=CC1=N2` [XVIII, reference compound], the MIC amounted to 25 µM in assay [1], 12.5 µM in assay [2], 6.3 µM in assay [3] and 6.3 µM in assay [4]. Besides, the MBC in assay [1] came out at 200 µM; in [2] it was 25 µM; in assay [3], 12.5 µM; in [4], 9 µM.
On to “6,7-bis-[(Amide N^α-L-Seryl)-L-Arginyl]-Protohemin (IX) [XX]”, for which the MIC was 6.25 µM in assay [5]; 0.65 µM in assay [6]; 1.3 µM in assay [7]; 1.3 µM in assay [8]; greater than 50.0 µM in the assay with Escherichia coli 4300; 3.12 µM in [9]. For the same molecule, the MIC in assay [10] and in assay [11] was 1.56 µM in each case.
Regarding `C=CC1=C(C)C2=Cc3c(C=C)c(C)c4[n]3[Fe]([Cl])[n]3c(c(C)c(CCC(=O)NCC(=O)OC)c3=CC3=NC(=C4)C(C)=C3CCC(=O)NCC(=O)OC)=CC1=N2` [XVII, reference compound], the MIC in assay [5] was greater than 50 µM; in [6] it was greater than 50 µM; in assay [7], 25 µM; in the assay on Escherichia coli 4300, greater than 50 µM; in assay [10] it was 25 µM; in assay [11], 25 µM. In addition, the MIC came to 50 µM in assay [1], 100 µM in assay [2], 1.6 µM in assay [3] and 12.5 µM in [4]. The minimum bactericidal concentration (MBC) in [1] was 50 µM; in assay [2], >200** μM; in assay [3] it was 6.5 µM; in [4], 25 µM.

In general, MIC refers to the lowest concentration found to suppress growth. A high value points to a need for much substance. One may read the MBC as the lowest tested concentration that kills the bacteria rather than only halting them.
